The record followed here is US12570650B2, “6-substituted pyridazine compounds as SMARCA2 and/or SMARCA4 degraders” (Aurigene Oncology Limited, priority 2020, dated 2026).

SMILES strings stand for the structures.

One assay addresses T1, SMARCA2 (Homo sapiens, UniProt P51531).
T1 construct: Determination of SMARCA2 and SMARCA4 Degradation in VCaP Cells by Western Blot; endogenous in cells; host or cells: VCaP (ATCC CRL-2876)
The assay can be described thus: SMARCA2 degradation in VCaP cells by Western blot. It counts as cell-based. The note with it: 16 hours. As for the experimental part: Example-P2: Determination of SMARCA2 and SMARCA4 Degradation in VCaP Cells by Western Blot
VCaP (ATCC CRL-2876) was plated in 6 well plates using complete Dulbecco's Modified Eagle's Medium. On the third day, compounds of present invention were added to cells from 10 mM stocks made in DMSO (Sigma Cat no. D2650). Each concentration of compound was tested with DMSO not exceeding final percentage of 0.3 in the cells. Cells were incubated with the compound for 16 hours followed by harvesting with 1×RIPA lysis buffer (Thermo Fischer, catalogue number #89900) containing protease inhibitor cocktail (Sigma catalogue number #P-8340). Equal amount of protein was loaded on SDS PAGE gel for electrophoresis. Western blot was carried out for detection of either SMARCA2 (Cell signalling technologies, catalogue number #11966) or SMARCA4 antibody (Cell signalling technologies, catalogue number #52251). Beta-Tubulin antibody (Cell signalling technologies, catalogue number #86298) was used as loading control. Percentage of SMARCA2 or SMARCA4 degradation was calculated using formula % Degradation=100−(normalized band intensity in treated sample/normalized band intensity in DMSO sample)*100.

The target of another assay is T2, SMARCA4 (Homo sapiens, UniProt P51532).
T2 construct: Determination of SMARCA2 and SMARCA4 Degradation in VCaP Cells by Western Blot; endogenous in cells; host or cells: VCaP (ATCC CRL-2876)
T2 sequence (P51532 whole entry): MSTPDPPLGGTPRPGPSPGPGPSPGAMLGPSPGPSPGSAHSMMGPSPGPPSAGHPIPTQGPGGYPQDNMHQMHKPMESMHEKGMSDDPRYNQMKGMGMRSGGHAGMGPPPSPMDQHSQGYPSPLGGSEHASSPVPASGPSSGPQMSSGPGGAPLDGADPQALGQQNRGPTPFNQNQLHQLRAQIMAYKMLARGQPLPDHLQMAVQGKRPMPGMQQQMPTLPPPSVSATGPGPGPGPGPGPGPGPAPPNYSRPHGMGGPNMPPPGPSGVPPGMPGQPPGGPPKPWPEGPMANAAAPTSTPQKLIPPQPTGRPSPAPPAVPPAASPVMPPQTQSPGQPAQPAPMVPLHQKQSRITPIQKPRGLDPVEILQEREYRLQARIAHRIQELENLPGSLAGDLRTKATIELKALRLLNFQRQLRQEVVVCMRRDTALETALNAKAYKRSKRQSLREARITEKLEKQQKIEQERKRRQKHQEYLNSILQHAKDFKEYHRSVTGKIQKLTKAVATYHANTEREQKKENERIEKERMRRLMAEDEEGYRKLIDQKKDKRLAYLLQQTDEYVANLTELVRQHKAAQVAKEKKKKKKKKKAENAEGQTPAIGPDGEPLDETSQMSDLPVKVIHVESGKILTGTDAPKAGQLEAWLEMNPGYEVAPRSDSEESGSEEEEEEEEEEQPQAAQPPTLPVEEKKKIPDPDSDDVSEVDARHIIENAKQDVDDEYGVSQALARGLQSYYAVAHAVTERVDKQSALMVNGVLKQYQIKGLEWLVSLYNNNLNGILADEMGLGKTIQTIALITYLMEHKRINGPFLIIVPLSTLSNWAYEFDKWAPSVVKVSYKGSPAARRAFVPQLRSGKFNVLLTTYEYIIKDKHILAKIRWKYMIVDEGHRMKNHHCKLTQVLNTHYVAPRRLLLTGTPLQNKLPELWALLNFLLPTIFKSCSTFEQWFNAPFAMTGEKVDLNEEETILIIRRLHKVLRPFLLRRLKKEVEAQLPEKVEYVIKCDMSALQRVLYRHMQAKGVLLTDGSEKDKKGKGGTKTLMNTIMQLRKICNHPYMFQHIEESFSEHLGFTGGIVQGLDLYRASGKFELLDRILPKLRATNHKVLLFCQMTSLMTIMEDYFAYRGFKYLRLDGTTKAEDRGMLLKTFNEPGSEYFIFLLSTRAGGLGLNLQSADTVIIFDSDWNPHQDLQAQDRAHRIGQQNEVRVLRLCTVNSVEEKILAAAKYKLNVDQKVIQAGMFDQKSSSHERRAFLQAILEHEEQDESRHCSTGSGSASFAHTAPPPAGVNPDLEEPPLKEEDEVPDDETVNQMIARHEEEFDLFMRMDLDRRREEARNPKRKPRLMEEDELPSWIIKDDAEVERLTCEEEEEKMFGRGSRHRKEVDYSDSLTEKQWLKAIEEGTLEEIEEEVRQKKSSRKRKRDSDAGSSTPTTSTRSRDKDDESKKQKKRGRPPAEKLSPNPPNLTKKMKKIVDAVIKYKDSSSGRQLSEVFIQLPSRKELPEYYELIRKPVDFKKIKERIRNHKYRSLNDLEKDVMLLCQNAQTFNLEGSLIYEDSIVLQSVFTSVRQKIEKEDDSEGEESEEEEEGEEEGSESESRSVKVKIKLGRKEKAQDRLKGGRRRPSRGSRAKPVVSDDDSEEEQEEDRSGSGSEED
As to the kind of experiment: SMARCA4 degradation in VCaP cells by Western blot. The note with it: 16 hours. It counts as cell-based. The procedure: On the third day, compounds of present invention were added to cells from 10 mM stocks made in DMSO (Sigma Cat no. D2650). Each concentration of compound was tested with DMSO not exceeding final percentage of 0.3 in the cells. […] Equal amount of protein was loaded on SDS PAGE gel for electrophoresis. […] Percentage of SMARCA2 or SMARCA4 degradation was calculated using formula % Degradation=100−(normalized band intensity in treated sample/normalized band intensity in DMSO sample)*100.

T1 sequence (P51531 whole entry): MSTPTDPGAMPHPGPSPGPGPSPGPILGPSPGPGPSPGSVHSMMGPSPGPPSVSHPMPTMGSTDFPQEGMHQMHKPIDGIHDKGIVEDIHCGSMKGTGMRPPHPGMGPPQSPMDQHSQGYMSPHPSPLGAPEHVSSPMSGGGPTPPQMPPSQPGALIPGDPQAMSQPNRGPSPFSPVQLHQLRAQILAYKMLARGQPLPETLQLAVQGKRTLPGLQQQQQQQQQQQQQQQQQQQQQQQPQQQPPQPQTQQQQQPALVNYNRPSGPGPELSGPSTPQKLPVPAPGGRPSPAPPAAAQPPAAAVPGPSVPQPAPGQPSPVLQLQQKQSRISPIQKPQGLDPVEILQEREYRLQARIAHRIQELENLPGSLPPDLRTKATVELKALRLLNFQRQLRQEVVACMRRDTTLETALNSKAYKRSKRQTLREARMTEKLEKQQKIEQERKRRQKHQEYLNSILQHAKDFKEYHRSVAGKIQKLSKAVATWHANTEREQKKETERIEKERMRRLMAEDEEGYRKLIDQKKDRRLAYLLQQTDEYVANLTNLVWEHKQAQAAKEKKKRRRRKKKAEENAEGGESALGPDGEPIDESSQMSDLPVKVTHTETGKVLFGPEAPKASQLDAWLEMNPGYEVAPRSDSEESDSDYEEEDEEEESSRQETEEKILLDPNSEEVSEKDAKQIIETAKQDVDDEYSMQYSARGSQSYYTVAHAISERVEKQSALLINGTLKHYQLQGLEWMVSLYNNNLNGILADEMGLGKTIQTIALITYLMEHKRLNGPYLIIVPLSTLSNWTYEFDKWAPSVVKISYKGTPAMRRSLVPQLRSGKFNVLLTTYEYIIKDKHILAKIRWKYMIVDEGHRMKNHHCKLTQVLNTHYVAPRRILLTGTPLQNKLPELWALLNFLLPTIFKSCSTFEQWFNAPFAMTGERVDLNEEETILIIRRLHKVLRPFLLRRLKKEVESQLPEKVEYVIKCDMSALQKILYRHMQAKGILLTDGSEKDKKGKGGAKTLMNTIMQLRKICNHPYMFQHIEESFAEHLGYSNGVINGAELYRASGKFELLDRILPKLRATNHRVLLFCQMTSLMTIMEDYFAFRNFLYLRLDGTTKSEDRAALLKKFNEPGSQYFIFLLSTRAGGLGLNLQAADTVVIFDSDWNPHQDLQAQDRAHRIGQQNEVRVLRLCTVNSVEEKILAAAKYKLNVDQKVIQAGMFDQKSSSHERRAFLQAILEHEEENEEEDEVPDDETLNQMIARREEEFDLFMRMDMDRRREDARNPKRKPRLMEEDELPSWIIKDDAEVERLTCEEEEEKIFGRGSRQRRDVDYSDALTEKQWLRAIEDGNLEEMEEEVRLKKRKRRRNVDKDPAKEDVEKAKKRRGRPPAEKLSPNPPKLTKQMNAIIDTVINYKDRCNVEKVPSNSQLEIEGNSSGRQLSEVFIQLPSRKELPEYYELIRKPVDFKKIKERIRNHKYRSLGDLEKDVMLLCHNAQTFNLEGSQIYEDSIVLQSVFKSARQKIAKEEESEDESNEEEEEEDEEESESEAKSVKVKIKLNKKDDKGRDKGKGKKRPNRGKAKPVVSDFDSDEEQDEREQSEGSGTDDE

`Cc1ncsc1-c1ccc([C@H](C)NC(=O)[C@@H]2C[C@@H](O)CN2C(=O)[C@@H](NC(=O)CN2CCC(Oc3ccc(-c4cnnc(-c5ccccc5O)c4)cc3)CC2)C(C)(C)C)cc1` [Compound 19, (2S,4R)-4-hydroxy-1-((S)-2-(2-(4-(4-(6-(2-hydroxyphenyl)pyridazin-4-yl)phenoxy)piperidin-1-yl)acetamido)-3,3-dimethylbutanoyl)-N-((S)-1-(4-(4-methylthiazol-5-yl)phenyl)ethyl)pyrrolidine-2-carboxamide]: on SMARCA2, the “Percent degradation (at 100 nM) SMARCA2” value is given as 88%. The “Percent degradation (at 100 nM) SMARCA4” value on SMARCA4 is 0%.
Take `Cc1ncsc1-c1ccc([C@H](C)NC(=O)[C@@H]2C[C@@H](O)CN2C(=O)[C@@H](NC(=O)C(C)N2CCN(c3ccc(-c4cnnc(-c5ccccc5O)c4)cc3)CC2)C(C)(C)C)cc1` (single isomer, unassigned) [Compound 29]: the “Percent degradation (at 100 nM) SMARCA2” value at SMARCA2 came out at 40%. Besides, at SMARCA4, the “Percent degradation (at 100 nM) SMARCA4” value is 0%.
On the same counts, the results for `Cc1ncsc1-c1ccc([C@H](C)NC(=O)[C@@H]2C[C@@H](O)CN2C(=O)[C@@H](NC(=O)CN2CCN(c3ccc(-c4cnnc(Cl)c4)cc3)CC2)C(C)(C)C)cc1` [Compound 3, (2S,4R)-1-((S)-2-(2-(4-(4-(6-chloropyridazin-4-yl)phenyl)piperazin-1-yl)acetamido)-3,3-dimethylbutanoyl)-4-hydroxy-N-((S)-1-(4-(4-methylthiazol-5-yl)phenyl)ethyl)pyrrolidine-2-carboxamide] are 20% and 47%.
With `Cc1ncsc1-c1ccc(C(CN(C)C)NC(=O)[C@@H]2C[C@@H](O)CN2C(=O)[C@@H](NC(=O)CN2CCN(c3ccc(-c4cnnc(-c5ccccc5O)c4)cc3)CC2)C(C)(C)C)cc1` (stereo partly drawn) [Compound 49, (2S,4R)-N-(2-(dimethylamino)-1-(4-(4-methylthiazol-5-yl)phenyl)ethyl)-4-hydroxy-1-((S)-2-(2-(4-(4-(6-(2-hydroxyphenyl)pyridazin-4-yl)phenyl)piperazin-1-yl)acetamido)-3,3-dimethylbutanoyl)pyrrolidine-2-carboxamide], the “Percent degradation (at 100 nM) SMARCA2” value on SMARCA2 is on record as 93%. For the same compound, at SMARCA4, the “Percent degradation (at 100 nM) SMARCA4” value amounted to 48%.
Take `Cc1ncsc1-c1ccc([C@H](C)NC(=O)[C@@H]2C[C@@H](O)CN2C(=O)[C@@H](NC(=O)CN2CCN(c3ccc(-c4cnnc(-c5cnn(C)c5)c4)cc3)CC2)C(C)(C)C)cc1` [Compound 9, (2S,4R)-1-((S)-3,3-dimethyl-2-(2-(4-(4-(6-(1-methyl-1H-pyrazol-4-yl)pyridazin-4-yl)phenyl)piperazin-1-yl)acetamido)butanoyl)-4-hydroxy-N-((S)-1-(4-(4-methylthiazol-5-yl)phenyl)ethyl)pyrrolidine-2-carboxamide]: the “Percent degradation (at 100 nM) SMARCA2” value on SMARCA2 is on record as 0%. Moreover, the “Percent degradation (at 100 nM) SMARCA4” value on SMARCA4 was 14%.
On the same counts, the results for `Cc1ncsc1-c1ccc([C@H](C)NC(=O)[C@@H]2C[C@@H](O)CN2C(=O)[C@@H](NC(=O)CCN2CCN(c3ccc(-c4cnnc(-c5ccccc5O)c4)cc3)CC2)C(C)(C)C)cc1` [Compound 8, (2S,4R)-4-hydroxy-1-((S)-2-(3-(4-(4-(6-(2-hydroxyphenyl)pyridazin-4-yl)phenyl)piperazin-1-yl)propanamido)-3,3-dimethylbutanoyl)-N-((S)-1-(4-(4-methylthiazol-5-yl)phenyl)ethyl)pyrrolidine-2-carboxamide] are 84% and 20%.
In the same order, the values of `Cc1ncsc1-c1ccc([C@H](C)NC(=O)[C@@H]2C[C@@H](O)CN2C(=O)[C@@H](NC(=O)CN2CCN(c3ccc(-c4cnnc(-c5cccc6cc[nH]c56)c4)cc3)CC2)C(C)(C)C)cc1` [Compound 39, (2S,4R)-1-((S)-2-(2-(4-(4-(6-(1H-indol-7-yl)pyridazin-4-yl)phenyl)piperazin-1-yl)acetamido)-3,3-dimethylbutanoyl)-4-hydroxy-N-((S)-1-(4-(4-methylthiazol-5-yl)phenyl)ethyl)pyrrolidine-2-carboxamide] are 46% and 17%.
In the same order, the values of `Cc1ncsc1-c1ccc([C@H](C)NC(=O)[C@@H]2C[C@@H](O)CN2C(=O)[C@@H](NC(=O)CN2CCN(c3ccc(-c4cnnc(-c5cccc6cn[nH]c56)c4)cc3)CC2)C(C)(C)C)cc1` [Compound 41, (2S,4R)-1-((S)-2-(2-(4-(4-(6-(1H-indazol-7-yl)pyridazin-4-yl)phenyl)piperazin-1-yl)acetamido)-3,3-dimethylbutanoyl)-4-hydroxy-N-((S)-1-(4-(4-methylthiazol-5-yl)phenyl)ethyl)pyrrolidine-2-carboxamide] are 12% and 22%.
Take `Cc1ncsc1-c1ccc([C@H](CO)NC(=O)[C@@H]2C[C@@H](O)CN2C(=O)[C@@H](NC(=O)CN2CCN(c3ccc(-c4cnnc(-c5ccccc5O)c4)cc3)CC2)C(C)(C)C)cc1` [Compound 48, (2S,4R)-4-hydroxy-N-((R)-2-hydroxy-1-(4-(4-methylthiazol-5-yl)phenyl)ethyl)-1-((S)-2-(2-(4-(4-(6-(2-hydroxyphenyl)pyridazin-4-yl)phenyl)piperazin-1-yl)acetamido)-3,3-dimethylbutanoyl)pyrrolidine-2-carboxamide]: the “Percent degradation (at 100 nM) SMARCA2” value at SMARCA2 is 90%. In addition, on SMARCA4, the “Percent degradation (at 100 nM) SMARCA4” value was 21%.
In the same order, the values of `Cc1ncsc1-c1ccc([C@H](C)NC(=O)[C@@H]2C[C@@H](O)CN2C(=O)[C@@H](NC(=O)CCCCOc2ccc(-c3cnnc(-c4ccccc4O)c3)cc2)C(C)(C)C)cc1` [Compound 34, (2S,4R)-4-hydroxy-1-((S)-2-(5-(4-(6-(2-hydroxyphenyl)pyridazin-4-yl)phenoxy)pentanamido)-3,3-dimethylbutanoyl)-N-((S)-1-(4-(4-methylthiazol-5-yl)phenyl)ethyl)pyrrolidine-2-carboxamide] are 81% and 58%.
In the same order, the values of `Cc1ncsc1-c1ccc([C@H](C)NC(=O)[C@@H]2C[C@@H](O)CN2C(=O)[C@@H](NC(=O)CN2CCN(c3ccc(-c4cnnc(-c5cccc6ccoc56)c4)cc3)CC2)C(C)(C)C)cc1` [Compound 40, (2S,4R)-1-((S)-2-(2-(4-(4-(6-(benzofuran-7-yl)pyridazin-4-yl)phenyl)piperazin-1-yl)acetamido)-3,3-dimethylbutanoyl)-4-hydroxy-N-((S)-1-(4-(4-methylthiazol-5-yl)phenyl)ethyl)pyrrolidine-2-carboxamide] are 6% and 3%.
On the same counts, the results for `Cc1ncsc1-c1ccc([C@H](C)NC(=O)[C@@H]2C[C@@H](O)CN2C(=O)[C@@H](NC(=O)CN2CCN(c3ccc(-c4cnnc(-c5ccccc5C(F)F)c4)cc3)CC2)C(C)(C)C)cc1` [Compound 37, (2S,4R)-1-((S)-2-(2-(4-(4-(6-(2-(difluoromethyl)phenyl)pyridazin-4-yl)phenyl)piperazin-1-yl)acetamido)-3,3-dimethylbutanoyl)-4-hydroxy-N-((S)-1-(4-(4-methylthiazol-5-yl)phenyl)ethyl)pyrrolidine-2-carboxamide] are 45% and 26%.
As for `Cc1ncsc1-c1ccc([C@H](C)NC(=O)[C@@H]2C[C@@H](O)CN2C(=O)C(c2cc(-c3ccc(-c4cnnc(-c5ccccc5O)c4)cc3)no2)C(C)C)cc1` (mixture of isomers) [Compound 1, (2S,4R)-4-hydroxy-1-(2-(3-(4-(6-(2-hydroxyphenyl)pyridazin-4-yl)phenyl)isoxazol-5-yl)-3-methylbutanoyl)-N-((S)-1-(4-(4-methylthiazol-5-yl)phenyl)ethyl)pyrrolidine-2-carboxamide], the “Percent degradation (at 100 nM) SMARCA2” value on SMARCA2 is 0%. Besides, the “Percent degradation (at 100 nM) SMARCA4” value on SMARCA4 came out at 30%.
Take `Cc1ncsc1-c1ccc([C@H](C)NC(=O)[C@@H]2C[C@@H](O)CN2C(=O)[C@@H](NC(=O)CN2CCN(c3ccc(-c4cnnc(-c5cc(F)ccc5O)c4)cc3)CC2)C(C)(C)C)cc1` [Compound 4, (2S,4R)-1-((S)-2-(2-(4-(4-(6-(5-fluoro-2-hydroxyphenyl)pyridazin-4-yl)phenyl)piperazin-1-yl)acetamido)-3,3-dimethylbutanoyl)-4-hydroxy-N-((S)-1-(4-(4-methylthiazol-5-yl)phenyl)ethyl)pyrrolidine-2-carboxamide]: the “Percent degradation (at 100 nM) SMARCA2” value on SMARCA2 worked out at 81%. Moreover, the “Percent degradation (at 100 nM) SMARCA4” value at SMARCA4 was determined as 0%.
